Laboratory results from US12594343B2, “Treatment of cancer” (INNATE PHARMA, priority 2020, dated 2026).

B1: N4 ADC2: Anti-Nectin-4 antibody conjugated to a second camptothecin (SN-38) containing linker (conjugate)
VH: QVQLKQSGPGLVQPSQSLSITCTVSGFSLTNYGVHWVRQSPGKGLEWLGVIWSGGSTDYNAAFISRLSISKDTSKSQVFFKMNSLQADDTAIYYCARELIHAMDNWGQGTSVTVSS
VL: DIQMTQSPASLSVSVGETVTITCRASENIYSNLAWYQQKQGNSPQLLVFAATNLADGVPSRFSGSGSGTQYSLKINSLQSEDFGTYYCQHFWGTPTFGGGTKLEIK
B2: N41: anti-Nectin-4 antibody, VH and VL of SEQ ID NOS: 9 and 10 as human IgG1 isotype (antibody, listed as Mus musculus, V domains shown)
VH: B1 VH
VL: B1 VL
modifications: human IgG1 constant regions

What was measured:
[1] = test system: advanced or metastatic urothelial tract tumors; settings: cited from earlier work
pancreatic cancer = settings: 349 patients; cited from earlier work
UC = settings: cited from earlier work
SUM185 cells = experiment: Fab-ZAP internalization assay (cell viability, CTG); assay type: cell-based, human; settings: SUM185 (higher Nectin-4)
Procedure: (§1) The ability of the anti-nectin-4 antibodies to induce nectin-4 internalization was assessed on SUM190 cell lines expressing lower levels of nectin-4 and in SUM185 cells expressing higher levels of Nectin-4. […] Internalization was indirectly determined by using the Fab-ZAP human Internalization Kit (Advanced Targeting Systems) to allow the anti-Nectin-4 antibodies to target and eliminate Nectin-4 expressing cells, with measurement of cell viability using the CTG substrate (CellTiter-Glo® Luminescent Cell Viability Assay (Promega). Fab-ZAP is a chemical conjugate of goat anti-human monovalent antibody and the ribosome-inactivating protein, saporin. The antibodies used are affinity-purified polyclonal antibodies against both the heavy and light chain of human IgG. This secondary conjugate is used to evaluate the potential of a primary antibody to internalize.
(§2) Briefly, a concentration range of the antibodies or the control items was incubated on top of the SUM190 or SUM185 cells. After the incubation, the non-bound antibodies were washed away and Fab-ZAP was added on top of the cells. The newly formed complexes (anti-nectin-4 antibody+Fab-ZAP) internalized into the cells where the Saporin was released and stopped the protein synthesis leading to cell death. The internalization capability of the antibody was indirectly determined by the cells viability: the more efficient was the cell killing; the better was the internalization capability of the antibody.

SUM190 cells = experiment: as above; assay type: cell-based, human; settings: SUM190 (lower Nectin-4)
Procedure: as §1, §2

[2] = target: T1, wild-type human Nectin-4 protein (Homo sapiens, UniProt Q96NY8); experiment: Flow cytometry binding to CHO cells expressing wild-type Nectin-4
T1 construct: expressed in transfected cells
T1 sequence (Q96NY8 32-510): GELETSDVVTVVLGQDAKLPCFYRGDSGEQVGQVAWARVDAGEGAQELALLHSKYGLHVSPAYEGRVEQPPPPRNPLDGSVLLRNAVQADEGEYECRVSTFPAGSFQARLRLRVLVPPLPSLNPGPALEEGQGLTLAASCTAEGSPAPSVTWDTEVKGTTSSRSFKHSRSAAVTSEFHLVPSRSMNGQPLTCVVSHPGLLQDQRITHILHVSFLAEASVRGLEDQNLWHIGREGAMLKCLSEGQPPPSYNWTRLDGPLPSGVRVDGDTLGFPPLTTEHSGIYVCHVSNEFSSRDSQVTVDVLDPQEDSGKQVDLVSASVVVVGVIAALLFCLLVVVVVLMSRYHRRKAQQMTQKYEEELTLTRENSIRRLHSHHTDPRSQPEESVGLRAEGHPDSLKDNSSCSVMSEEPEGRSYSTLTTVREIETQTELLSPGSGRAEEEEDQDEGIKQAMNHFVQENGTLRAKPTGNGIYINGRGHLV
Procedure: (§3) The characterization of the binding of the antibodies on Nectin-4 domains was performed by flow cytometry using cells made to express the wild-type human Nectin-4 protein and cells made to express a modified Nectin-4 having the Ig-like C2 type 1 and the Ig-like C2 type 2 domains and lacking the Ig-like V domain (the C1C2 construct). The latter protein additionally bears a V5 tag for flow cytometry cell sorting, and cells were used as Nectin4-C1C2-V5 sorted cells.
(§4) Wild-type Nectin-4 (the CI.3C8 cell line), a C2 construct (containing the Ig-like C2 type 2 domain and lacking both the V and the C1 domains) and the C1C2 construct allow the determination of whether test antibodies bind to the V or different C domains. Briefly, nucleic acid sequences encoding different human Nectin-4 domains were amplified by PCR. The PCR products were inserted into an expression vector at appropriate restriction sites. A leader peptide, and for C1C2 and C2 an N-terminal V5 tag having the amino acid sequence […] (SEQ ID NO: 13), were added, and expression at the surface of cells was confirmed by flow cytometry. The amino acid sequences of the resulting different human Nectin-4 domain fragment-containing proteins are shown below (V5 tag underlined). The vectors were then transfected into the CHO cell line to obtain stable clones expressing the different Nectin-4 domain proteins at the cell surface.

[3] = target: T2, modified Nectin-4 lacking the Ig-like V domain (the C1C2 construct) (Homo sapiens, UniProt Q96NY8); assay type: binding; settings: flow cytometry, CHO cells
T2 construct: having the Ig-like C2 type 1 and the Ig-like C2 type 2 domains and lacking the Ig-like V domain (the C1C2 construct); expressed in transfected cells
T2 sequence (Q96NY8 148-510): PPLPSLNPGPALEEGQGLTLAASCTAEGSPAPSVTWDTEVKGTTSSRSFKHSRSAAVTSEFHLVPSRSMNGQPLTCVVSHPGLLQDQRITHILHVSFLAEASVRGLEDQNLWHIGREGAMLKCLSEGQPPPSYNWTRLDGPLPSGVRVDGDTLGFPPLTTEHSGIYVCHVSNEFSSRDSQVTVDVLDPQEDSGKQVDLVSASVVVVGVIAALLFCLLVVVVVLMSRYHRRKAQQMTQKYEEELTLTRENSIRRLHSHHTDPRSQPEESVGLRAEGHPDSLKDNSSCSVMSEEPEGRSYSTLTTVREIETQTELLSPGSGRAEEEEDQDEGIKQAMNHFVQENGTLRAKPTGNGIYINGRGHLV
Procedure: as §3, §4

[4] = test system: modified Nectin-4 lacking the Ig-like V domain (the C1C2 construct); assay type: binding, human; settings: concluded from wild-type versus C1C2 binding
Procedure: as §3, §4

SUM190 tumor cells = experiment: ADC-induced tumor cell death, Cell Titer Glo viability at day 6; assay type: cell-based, human
Procedure: The resulting ADCs were tested for their ability to induce death of Nectin-4/Her2 expressing SUM190 and SUM185 tumor cells of Example 1. Briefly, cells were plated cells in 96 well plates (V=80 μl). N4 ADC1 and Her2 ADC1 or human IgG1-isotype control (IC)-linker-toxin or medium (conc. 5×) were tested in 1:2 serial dilution starting from (530 nM to 30 nM) and in a 1:5 serial dilution (7 nM to 7×10−2 nM) for the N4 ADC1 and isotype control. N4 ADC2 and isotype control were tested in 1:10 serial dilution starting from (530 nM to 5.3 10-2). The ADCs' ability to cause cell death was determined by assessing confluence using Incucyte S3-2 apparatus; viability at day 6 after treatment was determined using the Cell Titer Glo™ (CTG) assay with an Enspire2 apparatus. IC50 values for each ADC was determined using Luminescent Cell Viability at day 6 data with GraphPad Prism8. Experiments were repeated twice.
The anti-Nectin-4 camptothecin-analogue ADCs used were the N4 ADC1 as shown in Example 2. The anti-Her2 ADCs were also those used in Example 2 (Her2 ADC1). The ADC's ability to cause cell death was determined by assessing confluence and determining viability of SUM190 cells at day 6 as described in Example 2.

Molecule	ability to induce internalization (SUM185 cells)	ability to induce internalization (SUM190 cells)	binding to whole Nectin-4 protein [2]	binding to C1C2 construct lacking the V domain [3]	Nectin-4 domain bound [4]	other results
CC[C@@]1(O)C(=O)OCc2c1cc1n(c2=O)Cc2cc3c([N+](=O)[O-])cccc3nc2-1 [RFS2000]	–	–	–	–	–	activity in patients failing prior chemotherapy [1]: did not exert significant activity
CC[C@@]1(O)C(=O)OCc2c1cc1n(c2=O)Cc2c-1nc1cc(F)c(C)c3c1c2[C@@H](N)CC3 [exatecan]	–	–	–	–	–	efficacy of exatecan in addition to gemcitabine versus gemcitabine alone (pancreatic cancer): not superior in efficacy to gemcitabine alone
enfortumab vedotin	–	–	–	–	–	CR (complete response rate) (UC; UC patients): 12%; ORR (objective response rate) (UC; UC patients): 44%; discontinuation due to progressive disease as assessed by RECIST (UC; UC patients): 48%; discontinuation due to progressive disease by clinical symptoms (UC; UC patients): 5%; patients that discontinued experienced adverse events, notably neuropathy (UC): 18%
enfortumab: anti-Nectin-4 antibody, VH and VL of SEQ ID NOS: 3 and 4 as human IgG1 isotype	highly potent in the ability to induce of internalization	highly potent in the ability to induce of internalization	bound to the whole Nectin-4 protein	lost binding	within the V domain	–
B1	–	–	–	–	–	potency in causing tumor cell death (in words) (SUM190 tumor cells): good potency
B2	highly potent in the ability to induce of internalization	highly potent in the ability to induce of internalization	bound to the whole Nectin-4 protein	lost binding	within the V domain	–
